{
  "source": "patent US20190322643A1",
  "about": "(Georgia State University Research Foundation, Inc., priority 2016, published 2019)",
  "key": {"[1]": {"molecular_target": "T1, Mouse histone methyltransferase G9a (969-1263) (Mus musculus, UniProt Q9Z148)", "T1 construct": "The 6His-sumo mG9a (969-1263) protein was purified using the following procedure; 6His-sumo (cleaved yes); made in house; host or cells: Escherichia coli BL21 (DE3)", "T1 sequence (Q9Z148 969-1263)": "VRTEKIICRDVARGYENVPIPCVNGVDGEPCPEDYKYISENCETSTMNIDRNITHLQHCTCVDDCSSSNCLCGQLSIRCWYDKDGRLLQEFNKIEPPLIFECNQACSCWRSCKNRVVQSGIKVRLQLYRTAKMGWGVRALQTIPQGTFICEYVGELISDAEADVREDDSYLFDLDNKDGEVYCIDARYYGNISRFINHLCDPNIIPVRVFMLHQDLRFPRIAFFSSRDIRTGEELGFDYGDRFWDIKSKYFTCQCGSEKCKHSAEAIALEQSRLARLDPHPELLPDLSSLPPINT", "experiment": "MALDI-TOF methylation study of G9a inhibition", "format": "biochemical", "details": "inhibitors at 5 μM concentration for 30 min"}, "[2]": {"system": "MDA-MB-231", "experiment": "Cytotoxicity / anti-proliferation assay (CCK-8), MDA-MB-231", "format": "cell-based", "details": "Homo sapiens, 72 h, CCK-8 kit, read-out: EC50 MDA-MB-231", "method": "A549, MDA-MB-231, HCT-8, MCF-7, and HEK293 cells were seeded at 8000-10000 cells (100 μl) in white 96-well plates and pre-incubate the plate for 24 h under standard cell culture conditions, respectively. Then the cells were exposed to the different inhibitors with various concentrations for 72 h. Finally, 10 μl of CCK-8 kit solution was added to each well and incubated for 3-4 hours under standard cell culture conditions, and the 96 well plates were measured the absorbance at 450 nm using Perkin-Elmer Wallac Victor ^3V 1420 multi label plate reader (Perkin-Elmer, Wellesley, USA). EC50s were calculated using GraphPad Prizm statistical package with sigmoidal variable slope dose response curve fit.\nCell anti-proliferation assays were performed to determine the toxicity of these inhibitors. Several cell lines (MDA-MB-231, MCF-7, A549 and HCT-8) were incubated and then treated with varying concentrations of the inhibitors for 72 h, respectively. […] These compounds were further evaluated against the control cell line HEK293 to test their toxicity with a non-cancerous cell line."}, "[3]": {"system": "MCF-7", "experiment": "Cytotoxicity / anti-proliferation assay (CCK-8), MCF-7", "format": "cell-based", "details": "Homo sapiens, MCF7; 72 h, CCK-8 kit", "method": "Then the cells were exposed to the different inhibitors with various concentrations for 72 h. […] EC50s were calculated using GraphPad Prizm statistical package with sigmoidal variable slope dose response curve fit.\nCell anti-proliferation assays were performed to determine the toxicity of these inhibitors. […] These compounds were further evaluated against the control cell line HEK293 to test their toxicity with a non-cancerous cell line."}, "[4]": {"system": "HDAC", "experiment": "Cell based homogenous HDAC assay, Hela", "details": "read-out: IC50-HDAC Hela; Hela cells, mean ± SD of triplicate", "quoted_text": "After 24 h, 9 μl inhibitors with different concentration were added to the HeLa cells and incubation was continued for 3 h under cell culture conditions. After this treatment period, 10 μl of a 2 mM stock solution of the substrate Boc-K(Ac)-AMC was added into the 96 well plates with Hela cells and inhibitors. […] A549 and K562 cell lines used the same method, respectively. IC50s were calculated using GraphPad Prizm statistical package with sigmoidal variable slope dose response curve fit.\nBoc-K(Ac)-AMC was used as a cell-permeable HDAC substrate, as after deacetylation it is cleaved by trypsin to release the florescent 7-amino-4-methylcoumarin (AMC)."}},
  "data": [
    {"smiles": "CN1CCCN(c2nc(NC3CCN(Cc4ccccc4)CC3)c3ccc(OCCCCCCC(=O)NO)cc3n2)CC1", "note": "[Compound 30]", "values": [
      {"measurement": "inhibition at 5 µM", "setting": "[1]", "value": "17.9 ± 5.51", "unit": "%"},
      {"measurement": "EC50", "setting": "[2]", "value": "24 ± 3.64", "unit": "µM"},
      {"measurement": "EC50", "setting": "[3]", "value": "> 100", "unit": "µM"},
      {"measurement": "IC50", "setting": "[4]", "value": "> 100", "unit": "µM"}
    ]}
  ]
}
